Experimental data from paper PMC12214830, “The human RIF1-Long isoform interacts with BRCA1 to promote recombinational fork repair under DNA replication stress” (Nature Communications, 2025).
Entries after “also recorded” stand apart in the source; their conditions may differ. Non-standard residues stand in square brackets, D forms with d. No end group written: not given here. pS = N[C@@H](COP(=O)(O)O)C(=O)O

Tests used:
[1] = tested on: RIF1-L phosphoS2265; assay: Western blot, RIF1-L phosphoS2265, HeLa cells; format: cell-based, human
Protocol: Cells were harvested in 10 mM Tris-HCl pH 7.5, 2 mM EDTA buffer and lysed with laemmli sample buffer (Bio-Rad, 1610737, supplemented with 5% β-mercaptoethanol). Samples were heated at 95 °C for 15 min and centrifuged at 13,000 × g for 15 min. Protein concentrations were measured by RC DC Protein Assay (Bio-Rad, 5000122). Equal amounts of total proteins for each sample were separated in Mini-PROTEAN TGX Stain-free Precast Gels (Bio-Rad) by SDS-PAGE. Gels were at this stage imaged with the ChemiDoc Touch Imaging System (Bio-Rad) using the ‘Protein gel – Stain free’ module to obtain stain-free gel images. Proteins on gel were transferred to PVDF membranes (Bio-Rad, 1704274) using the Trans-Blot Turbo Blotting System (Bio-Rad). Membranes were blocked in 3% BSA in TBS-T (1x TBS supplemented with 0.1% Tween-20) at RT for 1 h, followed by incubation with primary antibodies overnight at 4 °C. Membranes were washed with TBS-T and then incubated with secondary antibodies for 1 h at RT. The blots were developed with Clarity ECL reagents (Bio-Rad, 1705060) and imaged with the ChemiDoc Touch Imaging System (Bio-Rad). Primary antibodies used for western blotting include anti-RIF1 (Bethyl Laboratories, A300-568A. 1:5000); anti-RIF1-L-Phospho-S2265 (amsbio, custom. 1:5000); anti-BRCA1 (D-9) (Santa Cruz Biotechnology, sc-6954. 1:1000); anti-BARD1 (Bethyl Laboratories, A300-263A. 1:1000); anti-53BP1 (Novus Biologicals, NB100-94. 1:5000); anti-PP1α (G4) (Santa Cruz Biotechnology, sc-271762. 1:1000); anti-Tubulin (YOL1/34) (Santa Cruz Biotechnology, sc-53030. 1:4000); anti-FLAG (M2) (Sigma-Aldrich, F1804. 1:2000); anti-GFP (Chromotek, 3h9. 1:2000); anti-RFP (Chromotek, 5f8. 1:2000). Uncropped and unprocessed Western Blot images are provided in the Source Data file.

[2] = tested on: RIF1-BRCA1 proximity in RPE-1 cells; assay: RIF1-BRCA1 proximity ligation assay, RPE-1 cells; format: cell-based, human
Protocol: (§1) Proximity ligation assays were performed using the Duolink In Situ PLA Fluorescence Protocol (Sigma-Aldrich, DUO92101) following the manufacturer’s instruction. Cells were grown on glass coverslips and treated as indicated for specific experiments. Cells were then permeabilized with 0.5% TritonX-100 in PBS for 10 min on ice, and fixed with 3% formaldehyde, 2% sucrose in PBS for 10 min at room temperature (RT). After fixation, coverslips were blocked in 3% BSA in PBS for 1 h at RT and incubated with primary antibodies (anti-RIF1, Bethel laboratories A300-568A, 1:1000 dilution; anti-BRCA1, Santa Cruz Biotechnologies, sc-6954, 1:200 dilution), for 1 h at RT in a humidity chamber. Primary antibodies were then washed off with PLA washing buffer A supplied in the Duolink In Situ PLA kit. Coverslips were next incubated sequentially with PLA Probes (1 h at 37 °C), ligation solution (30 min at 37 °C) and amplification solution (100 min at 37 °C), with washes by washing buffer A in between each step. At the end of incubation, coverslips were washed with washing buffer B supplied in the Duolink In Situ PLA kit. Coverslips were then mounted on glass slides with PLA Mounting medium with DAPI. Images were captured by fluorescence microscopy (Zeiss Axio Imager). PLA foci number in each nucleus were analysed by CellProfiler Software[74] with a custom-made pipeline.
For EdU labelling combined with proximity ligation assay, cells were labelled with 10 µM EdU for 15 min, washed free of EdU and next incubated with medium containing 4 mM HU medium for 4 h. Cells were then permeabilized, fixed and subjected to RIF1-BRCA1 PLA procedures. After all PLA steps, EdU detection was performed following manufacturer’s instructions in the Click-iT EdU Imaging Kit (Invitrogen, C10640).
(§2) For proximity ligation assays and immunofluorescence signal intensity measurements, when comparing between two samples, statistical significance of differences was calculated by Mann-Whitney test for non-parametric distributions using GraphPad Prism software (v.9). When comparing among three or more samples, p values were calculated by Kruskal-Wallis test for non-parametric distributions with Dunn’s multiple comparisons using GraphPad Prism software (v.9). For RIF1 foci formation analysis (Fig. 6B), p values were calculated by two-tailed Student’s t test. For nuclear BRCA1 intensity fold change analyses (Fig. 6C, D), p values were calculated by two-tailed one-sample t test using GraphPad Prism software (v.9). For RAD51 foci formation analyses (Fig. 7B, E and Supplementary Fig. 7B), p values were calculated by chi-square test. For HR Reporter assay analysis (Fig. 7G and Supplementary Fig. 7L), p values were calculated by two-tailed paired Student’s t test. For micronuclei frequency analysis (Fig. 7H), p values were calculated by one-tailed paired Student’s t test. All Student’s t tests were performed with Excel T.TEST function. Chi-square tests were performed with the online Chi-square test calculator at https://www.socscistatistics.com/tests/chisquare2/default2.aspx. Sample number n for all box-and-whisker plots and dot plots are listed in Supplementary Data 1.

[3] = tested on: RIF1-BRCA1 proximity in HeLa cells; assay: RIF1-BRCA1 proximity ligation assay, HeLa cells; format: cell-based, human; settings: HeLa +RIF1-L
Protocol: as §1, §2

[4] = tested on: BRCA1 nuclear signal; assay: BRCA1 nuclear immunofluorescence intensity, HeLa cells; format: cell-based, human
Protocol: Cells were grown on glass coverslips and treated as desired. Cells were then permeabilized with 0.5% TritonX-100 in PBS for 7 min on ice, and fixed with 4% w/v formaldehyde solution (Sigma HT5012) for 10 min at room temperature (RT). After fixation, coverslips were blocked with 3% BSA in PBS (RT, 1 h), incubated with primary antibodies (RT, 2 h), washed with PBS three times and incubated with secondary antibodies (RT, 1 h). Primary antibodies used for immunofluorescence include anti-γH2A.X (20E3) (Cell Signalling Technology, 9718. 1:500); anti-RPA32/RPA2 (9H8) (Abcam, ab2175. 1:200); anti-RAD51 (H92) (Santa Cruz Biotechnology, sc-8349. 1:100); anti-BrdU (B44) (BD Biosciences, 347580. 1:100); Coverslips were then mounted on glass slides with mounting medium with DAPI. Images were captured by either standard (Zeiss Axio Imager) or confocal (Zeiss LSM-880) microscopy. Fluorescence signal intensities within each nucleus were analysed by CellProfiler software with custom-made pipelines. […]
as §2, with “All Student’s t tests were performed with Excel T.TEST function. Chi-square tests were performed with the online Chi-square test calculator at https://www.socscistatistics.com/tests/chisquare2/default2.aspx. Sample number n for all box-and-whisker plots and dot plots are listed in Supplementary Data 1.” left out

[5] = tested on: micronuclei; assay: micronuclei frequency, HeLa cells; format: cell-based, human; settings: Fig.7H
Protocol: as §2

[6] = molecular target: BRCA1 C-terminal tandem BRCT domains (UniProt P38398); assay: fluorescence polarisation titration; settings: reference: pS2265 peptide, untreated; sites S2265
[7] = tested on: BRCA1-BRCT domain; assay: X-ray crystal structure of peptide with BRCA1-BRCT (PDB 8RS8); format: binding, human
Protocol: For crystallographic studies, the N-terminal HIS-SUMO tag was removed from the His6-SUMO-BRCA1-BRCT2 by incubation with GST-3C protease (in house) for 12 h at 4 °C. A Superdex 75 16/60 size exclusion column (GE Healthcare) was used to purify the BRCT2 domains to homogeneity in 10 mM HEPES pH 7.5, 200 mM NaCl, 0.5 mM TCEP.
An unlabelled RIF1 pS2265 peptide (SPGSR(pS)PKFKS) (Peptide Protein Research Ltd, Bishops Waltham, UK) was mixed with the pure BRCA1-BRCT2 domains at a five molar excess prior to concentration to 15 mg/ml for use in crystallisation trials. Crystals grew in condition MORPHEUS E2 (55.5 mM MES, 44.5 mM Imidazole, 120 mM Diethylene glycol, 120 mM Triethylene-glycol, 120 mM Tetraethylene glycol, 120 mM Pentaethylene glycol, 20% (v/v) Ethylene glycol, 10% (w/v) PEG 8000) (Molecular Dimensions) and were looped before flash freezing in liquid nitrogen. Data were collected on beamline I04-1 at the Diamond Synchrotron Lightsource and the structure was determined using PHASER[70] to perform molecular replacement with PDB 4IGK as a search model before refinement using the PHENIX software package. Figures were produced using PyMOL v2.2.2.

[8] = Chk1i (PF-477736) 1 µM 24 h + HU 4 mM 24 h
[9] = Fig 4F, Chk1i (PF-477736) 1 µM 24 h + HU 4 mM 24 h
[10] = Fig S4G (repeat), Chk1i (PF-477736) 1µM + HU 4mM 24hr
[11] = ATRi (VE-821) 1 µM 24 h + HU 4 mM 24 h
[12] = Fig 4F, ATRi (VE-821) 1 µM 24 h + HU 4 mM 24 h
[13] = Fig S4G (repeat), ATRi (VE-821) 1µM + HU 4mM 24hr
[14] = Fig S4H, ATRi (VE-821) 1µM + HU 4mM 24hr

Compound: Cn1cc(-c2[nH]c3cc(NC(=O)[C@H](N)C4CCCCC4)cc4c3c2C=NNC4=O)cn1 [PF-477736]
- HU-induced reduction of phosphoS2265 signal [1, 8]: partially reversed by Chk1 inhibition
- RIF1-BRCA1 PLA foci formation [2, 8]: abolished PLA foci formation
- RIF1-BRCA1 PLA foci per nucleus, mean [2, 9]: 0.156
- RIF1-BRCA1 PLA foci per nucleus, median [2, 9]: 0
- RIF1-BRCA1 PLA foci per nucleus, mean [2, 10]: 0.316
- RIF1-BRCA1 PLA foci per nucleus, median [2, 10]: 0

Compound: CS(=O)(=O)c1ccc(-c2cnc(N)c(C(=O)Nc3ccccc3)n2)cc1 [VE-821]
- HU-induced reduction of phosphoS2265 signal [1, 11]: reversed by simultaneous ATR inhibition
- RIF1-BRCA1 proximity signal [2, 11]: significantly lowered the RIF1-BRCA1 proximity signal
- RIF1-BRCA1 PLA foci per nucleus, mean [2, 12]: 1.672
- RIF1-BRCA1 PLA foci per nucleus, median [2, 12]: 1
- RIF1-BRCA1 PLA foci per nucleus, mean [2, 13]: 1.661
- RIF1-BRCA1 PLA foci per nucleus, median [2, 13]: 1
- RIF1-BRCA1 PLA foci per nucleus, mean [3, 14]: 13.09
- RIF1-BRCA1 PLA foci per nucleus, median [3, 14]: 12
- RIF1-BRCA1 PLA [3, 11]: also reduced RIF1-BRCA1 PLA

Compound: RIF1-L
- BRCA1 nuclear signal mean intensity ([4]; Exp 1): 12.65
- BRCA1 nuclear signal mean intensity ([4]; Exp 2): 11.6
- BRCA1 nuclear signal mean intensity ([4]; Exp 3): 10.09
- Micronuclei per 100 ([5]; HU, experiment 14Apr2024): 7.605
- Micronuclei per 100 ([5]; HeLa RIF1 KO + GFP-RIF1 derivative cells, HU, experiment 07Jun2024): 5.84
- Micronuclei per 100 ([5]; HeLa RIF1 KO + GFP-RIF1 derivative cells, unt, experiment 07Jun2024): 3.60
- Micronuclei per 100 ([5]; unt, experiment 14Apr2024): 3.159

Compound: RIF1-Long (RIF1-L) (from UniProt Q5UIP0) λ phosphatase treated peptide
- binding against the reference [6]: lost

Compound: SPGSR[pS]PKFKS [RIF1-L phospho-peptide, unlabelled RIF1 pS2265 peptide used for crystallography]
- binding mode in crystal ([7]; MORPHEUS E2): fits within the BRCT pocket of BRCA1 as expected; also recorded: positively charged amino acids K^2267 and K^2269 of RIF1-L lie adjacent to the negatively charged E^1698 BRCA1 residue
- binding mode in crystal ([7]; MORPHEUS E2, listed as RIF1-L peptide): found in the canonical phosphate binding pocket of the BRCA1 BRCTs
